Test results reported in article PMC6593178 (Bioorganic & Medicinal Chemistry Letters, 2019).
“Also recorded” adds a separate entry of the source. Read-outs that look alike come from different tables or passages of the source.

Assays:
[1] = target: T1, CphA (Aeromonas hydrophila, UniProt P26918); assay: β-lactamase inhibition, meropenem hydrolysis UV assay; type: biochemical; conditions: subclass B2
T1 construct: made in house; host or cells: E. coli
Protocol: (§1) Recombinant MBLs and SBLs were produced in E. coli and purified following reported procedures^1-6 and were all >95% pure (as judged by SDS-PAGE and MS analyses). Note the TEM enzyme used in this study is named TEM-116^7, in previous studies this has been assigned incorrectly as TEM-1^3, 5, 8-14. […] Activity was assayed by monitoring the release of a fluorophore following the enzymatic breakdown of the cephalosporin FC-5^15, with the exception of the class B2 MBLs, where the hydrolysis of meropenem was used as a readout^16. FC-5 assays were conducted in clear bottomed 384 black well microplates (Greiner) and the initial rate of reaction was assessed by monitoring the fluorescence intensity (λex = 380 nm and λem = 460 nm) using a PHERAstar FS (BMG LabTech) plate reader^15. For the B2 MBLs, assays were carried out in 96 well UV star microplates (Greiner) and UV absorbance at λ = 300 nm monitored. Initial rates of reaction were determined and dose-response analyses conducted in GraphPad Prism^15.

[2] = target: T2, AmpC (Pseudomonas aeruginosa, UniProt P24735); assay: β-lactamase inhibition, FC-5 fluorogenic cephalosporin assay; type: biochemical; conditions: class C
T2 construct: made in house; host or cells: E. coli
T2 sequence (P24735 27-397): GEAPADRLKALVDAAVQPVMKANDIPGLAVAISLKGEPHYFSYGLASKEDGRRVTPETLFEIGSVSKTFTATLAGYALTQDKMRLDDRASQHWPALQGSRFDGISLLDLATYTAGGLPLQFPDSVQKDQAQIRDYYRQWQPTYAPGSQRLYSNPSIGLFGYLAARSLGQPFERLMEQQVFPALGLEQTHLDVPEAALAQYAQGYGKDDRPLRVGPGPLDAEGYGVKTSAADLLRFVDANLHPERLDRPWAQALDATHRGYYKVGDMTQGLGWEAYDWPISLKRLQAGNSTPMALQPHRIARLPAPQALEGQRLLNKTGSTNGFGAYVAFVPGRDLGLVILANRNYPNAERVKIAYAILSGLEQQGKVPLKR
Protocol: as §1

[3] = target: T3, IMP-1 (Serratia marcescens, UniProt P52699); assay: as above; type: biochemical; conditions: IMP-1, subclass B1
T3 construct: made in house; host or cells: E. coli
T3 sequence (P52699 19-246, looked up, species assumed): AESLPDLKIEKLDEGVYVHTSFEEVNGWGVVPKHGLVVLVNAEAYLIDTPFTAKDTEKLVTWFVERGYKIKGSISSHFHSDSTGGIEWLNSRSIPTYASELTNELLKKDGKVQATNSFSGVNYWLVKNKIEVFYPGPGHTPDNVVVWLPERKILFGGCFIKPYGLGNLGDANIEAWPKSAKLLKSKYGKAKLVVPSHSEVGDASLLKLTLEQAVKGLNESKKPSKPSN
Protocol: as §1

[4] = target: T4, KPC-2 (Klebsiella pneumoniae, UniProt Q9F663); assay: as above; type: biochemical; conditions: KPC-2, class A
T4 construct: made in house; host or cells: E. coli
T4 sequence (Q9F663 25-293, looked up, species assumed): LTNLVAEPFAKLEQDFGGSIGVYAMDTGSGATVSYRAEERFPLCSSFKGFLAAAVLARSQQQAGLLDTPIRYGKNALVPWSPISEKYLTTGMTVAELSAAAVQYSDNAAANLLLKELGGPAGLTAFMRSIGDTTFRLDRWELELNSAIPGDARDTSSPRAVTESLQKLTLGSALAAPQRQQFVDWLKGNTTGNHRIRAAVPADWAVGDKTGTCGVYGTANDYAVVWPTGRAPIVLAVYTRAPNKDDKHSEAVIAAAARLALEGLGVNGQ
Protocol: as §1

[5] = target: T5, L1 (Stenotrophomonas maltophilia, UniProt P52700); assay: as above; type: biochemical; conditions: L1, subclass B3
T5 construct: made in house; host or cells: E. coli
T5 sequence (P52700 34-290): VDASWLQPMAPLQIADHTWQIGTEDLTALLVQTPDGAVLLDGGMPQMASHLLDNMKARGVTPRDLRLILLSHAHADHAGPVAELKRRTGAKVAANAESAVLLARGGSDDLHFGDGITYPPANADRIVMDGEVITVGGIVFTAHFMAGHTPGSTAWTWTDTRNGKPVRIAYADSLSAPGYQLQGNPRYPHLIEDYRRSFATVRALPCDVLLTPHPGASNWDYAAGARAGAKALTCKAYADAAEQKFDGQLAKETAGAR
Protocol: as §1

[6] = target: T6, NDM-1 (Klebsiella pneumoniae, UniProt C7C422); assay: as above; type: biochemical; conditions: NDM-1, subclass B1
T6 construct: made in house; host or cells: E. coli
T6 sequence (C7C422 29-270, looked up, species assumed): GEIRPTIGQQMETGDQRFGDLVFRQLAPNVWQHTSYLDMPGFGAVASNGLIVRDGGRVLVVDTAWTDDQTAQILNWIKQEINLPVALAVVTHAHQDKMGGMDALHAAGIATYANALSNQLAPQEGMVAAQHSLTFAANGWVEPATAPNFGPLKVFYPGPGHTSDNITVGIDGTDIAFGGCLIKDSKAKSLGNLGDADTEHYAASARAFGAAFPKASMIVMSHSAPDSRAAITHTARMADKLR
Protocol: as §1

[7] = target: T7, OXA-10 (Pseudomonas aeruginosa, UniProt P14489); assay: as above; type: biochemical; conditions: for IC50: OXA-10, class D
T7 construct: made in house; host or cells: E. coli
T7 sequence (P14489 20-266, species assumed): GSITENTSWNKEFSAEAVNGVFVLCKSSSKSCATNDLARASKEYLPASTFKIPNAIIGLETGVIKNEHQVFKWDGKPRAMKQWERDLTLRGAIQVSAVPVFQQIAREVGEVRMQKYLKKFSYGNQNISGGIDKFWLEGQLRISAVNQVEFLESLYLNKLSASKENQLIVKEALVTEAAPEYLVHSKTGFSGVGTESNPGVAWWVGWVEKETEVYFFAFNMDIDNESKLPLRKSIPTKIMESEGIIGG
Protocol: as §1

[8] = target: T8, VIM-1 (Pseudomonas aeruginosa, UniProt A0A0F7KYQ8); assay: as above; type: biochemical; conditions: VIM-1, subclass B1
T8 construct: made in house; host or cells: E. coli
Protocol: as §1

[9] = target: T9, VIM-2 (Escherichia coli, UniProt Q5U7L7); assay: as above; type: biochemical; conditions: VIM-2, subclass B1
T9 construct: made in house; host or cells: E. coli
Protocol: as §1

[10] = target: T10, OXA-48 (Klebsiella pneumoniae, UniProt Q6XEC0); assay: as above; type: biochemical; conditions: Vaborbactam IC50, OXA-48, class D, 100 mM NaHCO3
T10 construct: made in house; host or cells: E. coli
T10 sequence (Q6XEC0 23-265, looked up, species assumed): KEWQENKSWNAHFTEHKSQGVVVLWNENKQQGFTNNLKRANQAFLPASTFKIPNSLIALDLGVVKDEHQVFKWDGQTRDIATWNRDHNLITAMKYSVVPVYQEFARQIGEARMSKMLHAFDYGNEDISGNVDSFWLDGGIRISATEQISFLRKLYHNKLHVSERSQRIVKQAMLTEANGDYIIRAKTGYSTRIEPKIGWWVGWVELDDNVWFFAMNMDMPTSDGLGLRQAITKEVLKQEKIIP

[11] = target: CTX-M15; design: method as in PMID 25782055; conditions: read-out: Vaborbactam Ki; CTX-M15, nitrocefin assay; cited from earlier work
[12] = target: SHV-12; conditions: read-out: Vaborbactam Ki; SHV-12, nitrocefin assay; cited from earlier work
[13] = target: KPC-2 carbapenemase; design: method as in PMID 25782055; conditions: read-out: Vaborbactam Ki; KPC-2, nitrocefin assay; cited from earlier work
[14] = target: cephalosporinase P99; design: method as in PMID 25782055; conditions: read-out: Vaborbactam Ki; P99, nitrocefin assay; cited from earlier work
[15] = target: CMY-2; design: method as in PMID 25782055; conditions: read-out: Vaborbactam Ki; CMY-2, nitrocefin assay; cited from earlier work
[16] = test system: class B MBLs (IMP-1, VIM-1, VIM-2, NDM-1 and L1); design: method as in PMID 27401561; conditions: across the same range of inhibitor concentrations as vaborbactam; cited from earlier work
[17] = test system: CTX-M15; design: method as in PMID 28115348; conditions: read-out: Cyclic Boronate (CB2) IC50; cited from earlier work
[18] = target: T1, CphA; conditions: cited from earlier work
[19] = target: T5, L1; conditions: cited from earlier work
[20] = target: T2, AmpC; conditions: read-out: Cyclic Boronate (CB2) IC50; cited from earlier work

T1 sequence (P26918 28-254): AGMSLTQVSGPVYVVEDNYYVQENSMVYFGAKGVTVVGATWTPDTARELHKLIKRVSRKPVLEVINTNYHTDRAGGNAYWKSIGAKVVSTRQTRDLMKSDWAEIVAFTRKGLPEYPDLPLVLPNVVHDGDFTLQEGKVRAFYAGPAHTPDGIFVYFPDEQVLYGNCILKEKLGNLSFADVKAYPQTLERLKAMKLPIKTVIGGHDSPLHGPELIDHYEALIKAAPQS

`O=C(O)C[C@@H]1CC[C@H](NC(=O)Cc2cccs2)B(O)O1` [Vaborbactam, vaborbactam] showed an IC50 [1] of 631 µM, an IC50 [2] of 5 µM and an IC50 [3] of 126 µM. It also gave an IC50 [4] of 0.09 µM, an IC50 [5] of 336 µM and an IC50 [6] of 631 µM. For the same compound, the IC50 ([7]; without NaHCO3) was greater than 400 µM, the IC50 ([7]; read-out: Vaborbactam IC50, 100 mM NaHCO3) was greater than 400 µM and the inhibition at 400 µM ([7]; read-out: inhibition of OXA-10 at the highest tested concentration) was less than 50%. It also gave an IC50 [8] of 398 µM, an IC50 [9] of 316 µM and an IC50 [10] of 32 µM. The Ki [11] was 0.044 µM, the Ki [12] was 0.029 µM and the Ki [13] was 0.069 µM. The Ki [14] was 0.053 µM and the Ki [15] was 0.099 µM.

In the case of `NC(=O)[C@@H]1CC[C@@H]2CN1C(=O)N2OS(=O)(=O)O` [avibactam], the “inhibition of MBLs” value [16] is listed as “does not show any inhibition”.

For `NCc1ccc(C(=O)N[C@H]2Cc3cccc(C(=O)O)c3OB2O)cc1` [CB2], the IC50 [17] is given as 0.013 µM, the “inhibitory activity against B2 CphA” value ([18]; CphA (mono Zn(II))) is given as “do not exhibit inhibitory activity” and the IC50 ([18]; read-out: Cyclic Boronate (CB2) IC50, CphA) is given as greater than 100 µM. The “Cyclic Boronate (CB2) IC50” value [19] was “do not exhibit inhibitory activity; also recorded: Not inhibited[19]” and the IC50 [20] was 0.12 µM.
